Measurements from paper PMC12731232, “Microbial Biotransformation of the Sesquiterpene Carotol: Generation of Hydroxylated Metabolites with Potential Cytotoxic and Target-Specific Binding Activities” (Biomolecules, 2025).
In brackets after ≈: the same amount, converted by molar mass.

Assays:
[1] = in vitro; settings: human
Procedure: (§1) The assay was conducted at the Regional Center for Mycology and Biotechnology, Al-Azhar University, Cairo, Egypt.
(§2) Cancer and normal cells were seeded into 96-well plates at a density of 5 × 10^4 cells per well and incubated for 24 h prior to treatment. Test compounds, dissolved in 0.5% DMSO, were added in triplicate at twelve different concentrations. Vehicle controls (media only or media containing 0.5% DMSO) were included. After a 24 h incubation period, cell viability was assessed via the MTT assay.
(§3) Briefly, the media were replaced with 100 µL of fresh RPMI-1640 medium, followed by the addition of 10 µL of a 12 mM MTT stock solution (5 mg/mL in PBS) to each well, including untreated controls. Plates were incubated at 37 °C in a 5% CO2 atmosphere for 4 h. Subsequently, 85 µL of medium was removed from each well, and 50 µL of DMSO was added to dissolve the resulting formazan crystals. The plates were thoroughly mixed and incubated for an additional 10 min at 37 °C. Absorbance was measured at 590 nm using a microplate reader (SunRise, TECAN Inc., Morrisville, NC, USA). Cell viability percentages were calculated, and IC50 values (µM) were determined from dose–response curves using GraphPad Prism 10 software (San Diego, CA, USA) [38].

[2] = test system: MCF-7 (breast carcinoma); assay: MTT cell viability assay, MCF-7; settings: for IC50: Homo sapiens, MCF7, 24 h, read-out: Cytotoxic activity IC50 ± SD; for Selectivity index (SI): SI = CC50(MRC-5)/IC50(MCF-7)
Procedure: as §1, §2, §3

[3] = test system: A-549 (lung carcinoma); assay: MTT cell viability assay, A-549; settings: for IC50: Homo sapiens, A549, 24 h, read-out: Cytotoxic activity IC50 ± SD; for Selectivity index (SI): SI = CC50(MRC-5)/IC50(A-549)
Procedure: as §1, §2, §3

[4] = test system: HepG-2 (hepatocellular carcinoma); assay: MTT cell viability assay, HepG-2; settings: for IC50: Homo sapiens, HepG2, 24 h, read-out: Cytotoxic activity IC50 ± SD; for Selectivity index (SI): SI = CC50(MRC-5)/IC50(HepG-2)
Procedure: as §1, §2, §3

[5] = test system: HCT-116 (colon carcinoma); assay: MTT cell viability assay, HCT-116; settings: for IC50: Homo sapiens, HCT-116, 24 h, read-out: Cytotoxic activity IC50 ± SD; for Selectivity index (SI): SI = CC50(MRC-5)/IC50(HCT-116)
Procedure: as §1, §2, §3

[6] = Substrate control stability in sterile fermentation medium; type: physicochemical; settings: without microorganisms
Procedure: Control groups included a substrate control, in which sterile medium containing carotol (5 mg/100 µL DMF) was incubated without microorganisms. […] Culture controls consisted of microorganisms grown under identical conditions to the screening cultures but without carotol. After two weeks of incubation, all cultures were harvested and analyzed by thin-layer chromatography.

[7] = test system: green monkey kidney epithelial cells (VERO); parameters: method as in doi:10.1016/j.indcrop.2016.08.001; settings: cited from earlier work
[8] = test system: human hypopharyngeal squamous cell carcinoma cells (FaDu); parameters: method as in doi:10.1016/j.indcrop.2016.08.001; settings: cited from earlier work
[9] = MTT cell viability assay, MRC-5; settings: human, MRC-5 normal lung fibroblasts
Procedure: as §1, §2, §3

IC50 at 24 h [1] [µM] | Stability of substrate control ([6]; 5 °C, two weeks) | Stability of substrate control ([6]; room temperature (25–30 °C)) | Structure (SMILES) | IC50 [2] [µM] | Selectivity index (SI) [2] | IC50 [3] [µM] | Selectivity index (SI) [3] | IC50 [4] [µM] | Selectivity index (SI) [4] | IC50 [5] [µM] | Selectivity index (SI) [5] | IC50 [7] [mg/L] | IC50 [8] [mg/L] | IC50 at 24 h [9] [µM]
466 ± 20.3 |  |  | CC(C)C1C(O)CC2(C)CC(O)C3(C)CCC12O3 (stereo not drawn) [CM1, 9α-hydroxydaucol] | 401 ± 20.3 | 1.16 | 225 ± 13.4 | 2.07 | 221 ± 12.3 | 2.11 | 339 ± 15.6 | 1.37 |  |  | 
316 ± 15.2 |  |  | CC(C)[C@H]1CC[C@]2(C)C[C@H](O)[C@@](C)(O)CC[C@]12O [CM3] | 242 ± 15.7 | 1.31 | 205 ± 10.6 | 1.54 | 196 ± 10.6 | 1.62 | 226 ± 11 | 1.40 |  |  | 
248 ± 11.2 |  |  | CC(C)(O)[C@H]1[C@@H](O)C[C@]2(C)C[C@H](O)[C@]3(C)CC[C@]12O3 [CM2, 9α,13-dihydroxydaucol] | 213 ± 13.7 | 1.16 | 138 ± 9.2 | 1.79 | 154 ± 9.39 | 1.60 | 181 ± 9.95 | 1.37 |  |  | 
176 ± 10.9 | remained fully stable | slight decomposition | CC1=CC[C@@]2(C)CC[C@H](C(C)C)[C@@]2(O)CC1 [Carotol] | 68.4 ± 6.04 | 2.57 | 28.7 ± 2.75 | 6.14 | 52.3 ± 4.23 | 3.36 | 25.7 ± 0.53 | 6.85 | 39.7 (≈ 179 µM) | 38.3 (≈ 172 µM) | 
 |  |  | COc1cccc2c1C(=O)c1c(O)c3c(c(O)c1C2=O)C[C@@](O)(C(=O)CO)C[C@@H]3O[C@H]1C[C@H](N)[C@H](O)[C@H](C)O1 [Doxorubicin, doxorubicin, reference compound] | 3.07 ± 0.18 | 14.31 | 3.31 ± 0.26 |  | 1.27 ± 0.2 | 34.62 | 2.99 ± 0.22 | 14.66 |  |  | 44 ± 3.24
